According to patent publication US20260256143A1, “HERBICIDAL COMPOSITION AND METHOD FOR CONTROLLING WEEDS” (Enko Chem, Inc., priority 2023, published 2026):
Like-named read-outs stand apart in the source and are kept apart here.

Columns and labels:
AMATU [1] = test: Field test, soil residual activity on bare soil (Example 71); type: in vivo, Amaranthus rudis; conditions: Amaranthus tuberculatus, 1008 h, 6 weeks after application, read-out: % growth inhibition AMATU
Procedure: (§1) Compound 1 and Compound 1 mixed with pyroxasulfone were tested at different field locations to evaluate the herbicides efficacy for controlling weeds by soil residual activity. All herbicide treatments were applied with a backpack CO2 pressurized sprayer at 190 L/ha volume. The herbicide applications were made to bare soil free of any vegetation to assess the efficacy of the different herbicides to suppress weeds germination and development. The herbicide treatments included Compound 1 formulated as 10% emulsified concentrate, pyroxasulfone as a commercial formulation (ZIDUA SC, BASF), or a mixture of Compound 1 and pyroxasulfone products prepared as a “tank-mix” before the field application. All herbicide field spray solution included ammonium sulfate final solution concentration of 2%. Different weeds species were assessed at the separate field locations. For each species, the herbicide efficacy to control weeds, assessed as % of suppressed weeds plants relative to the untreated control plots, was evaluated at 6 weeks after the herbicide application.

ABUTH = test: as above; type: in vivo; conditions: Abutilon theophrasti, 1008 h, 6 weeks after application, read-out: % growth inhibition ABUTH
Procedure: as §1

AMAPA [2] = test: as above; type: in vivo; conditions: Amaranthus palmeri, 1008 h, 6 weeks after application, read-out: % growth inhibition AMAPA
Procedure: as §1

CHEAL [3] = test: as above; type: in vivo; conditions: Chenopodium album, 1008 h, Loc 6, pyroxasulfone 90 g a.i./ha, 6 weeks after application, read-out: % growth inhibition CHEAL
Procedure: as §1

DIGSA [4] = test: as above; type: in vivo; conditions: Digitaria sanguinalis, 1008 h, Loc 5, pyroxasulfone 90 g a.i./ha, 6 weeks after application, read-out: % growth inhibition DIGSA
Procedure: as §1

SETFA = test: as above; type: in vivo; conditions: Setaria faberi, 1008 h, Loc 4, pyroxasulfone 90 g a.i./ha, 6 weeks after application, read-out: % growth inhibition SETFA
Procedure: as §1

AMAPA [5] = test: Greenhouse pre-emergence residual test (Example 73); type: in vivo, Amaranthus palmeri; conditions: Amaranthus palmeri, pre-emergence; Dose 90 g a.i./ha; 17-21 DAT; read-out: Pre-emergence percent weed growth and germination inhibition AMAPA
Procedure: (§2) Compound 1 was tested at several doses for residual weed control efficacy by itself or in combination as a tank mix with commercial herbicides. The following commercial products were used in tank mix with a 10% active emulsifiable concentrate formulation of Compound 1: S-metolachlor (Dual Magnum®, Syngenta), mesotrione (Callisto®, Syngenta), pyroxasulfone (Zidua® SC, BASF), metribuzin (Tricor DF™, United Phosphorus, Inc).
(§3) Accordingly, weed seeds were planted in 2-inch pots containing custom field soil mix (sandy loam with 3.3% organic matter, pH 7.0) and covered with a fine layer of the same soil. Three replicate pots were treated with each compound. Treatment consisting of the above formulation excluding active compound was applied as a treatment control (TC). Pots were treated with the test compound solution in a laboratory spray chamber fitted with 8003 even fan nozzles calibrated to deliver 187-200 L ha^−1 at 269 kPa. All treatments included the following inert ingredients in the final formulation; 1% Crop Oil Concentrate (v/v) (AGRI-DEX, Helena Agri) and 2.5% Ammonium sulphate (w/v). Compound 1 was incorporated into the soil by simulating rainfall equivalent to 0.2 mm using the same track sprayer. Subsequently, pots were irrigated from the bottom until weed control evaluation. Pots were placed back in the greenhouse and evaluated for percentage visual growth and germination inhibition compared to TC 17-21 days after treatment (DAT). Complete growth inhibition is represented by 100%.

AMATU [6] = test: as above; type: in vivo, Amaranthus rudis; conditions: Amaranthus tuberculatus, pre-emergence; Dose 90 g a.i./ha; 17-21 DAT; read-out: Pre-emergence percent weed growth and germination inhibition AMATU
Procedure: as §2, §3

KCHSC = test: as above; type: in vivo, Bassia scoparia; conditions: Bassia scoparia, pre-emergence; Dose 90 g a.i./ha; 17-21 DAT; read-out: Pre-emergence percent weed growth and germination inhibition KCHSC
Procedure: as §2, §3

CHEAL [7] = test: as above; type: in vivo, Chenopodium album; conditions: Chenopodium album, pre-emergence; Dose 90 g a.i./ha; 17-21 DAT; read-out: Pre-emergence percent weed growth and germination inhibition CHEAL
Procedure: as §2, §3

DIGSA [8] = test: as above; type: in vivo, Digitaria sanguinalis; conditions: Digitaria sanguinalis, pre-emergence; Dose 90 g a.i./ha; 17-21 DAT; read-out: Pre-emergence percent weed growth and germination inhibition DIGSA
Procedure: as §2, §3

ALOMY = test: as above; type: in vivo, Alopecurus myosuroides; conditions: Alopecurus myosuroides, pre-emergence; Dose 90 g a.i./ha; 17-21 DAT; read-out: Pre-emergence percent weed growth and germination inhibition ALOMY
Procedure: as §2, §3

ECHCG = test: as above; type: in vivo, Echinochloa crus-galli; conditions: Echinochloa crus-galli, pre-emergence; Dose 90 g a.i./ha; 17-21 DAT; read-out: Pre-emergence percent weed growth and germination inhibition ECHCG
Procedure: as §2, §3

[9] = Loc 3, pyroxasulfone 90 g a.i./ha

`Cn1nc(C(F)(F)F)c(CS(=O)(=O)C2=NOC(C)(C)C2)c1OC(F)F` [pyroxasulfone] was tested, and the inhibition at 90 g/ha (AMATU [1]; Loc 1, pyroxasulfone 90 g a.i./ha) was 97%, the inhibition at 90 g/ha (AMATU [1]; Loc 2, pyroxasulfone 90 g a.i./ha) was 74% and the inhibition at 90 g/ha (ABUTH; [9]) was 44%. It also gave an inhibition at 90 g/ha (ABUTH; Loc 4, pyroxasulfone 90 g a.i./ha) of 60%, an inhibition at 90 g/ha (ABUTH; Loc 6, pyroxasulfone 90 g a.i./ha) of 50% and an inhibition at 90 g/ha (AMAPA [2]; [9]) of 34%. It also gave an inhibition at 90 g/ha (AMAPA [2]; Loc 5, pyroxasulfone 90 g a.i./ha) of 75%, an inhibition at 90 g/ha (CHEAL [3]) of 88% and an inhibition at 90 g/ha (DIGSA [4]) of 74%. For the same compound, the inhibition at 90 g/ha (SETFA) was 77%, the inhibition at 90 g/ha (AMAPA [5]) was 73% and the inhibition at 90 g/ha (AMATU [6]) was 83%. The inhibition at 90 g/ha (KCHSC) was 80%, the inhibition at 90 g/ha (CHEAL [7]) was 100% and the inhibition at 90 g/ha (DIGSA [8]) was 78%. The inhibition at 90 g/ha (ALOMY) was 47% and the inhibition at 90 g/ha (ECHCG) was 100%.
